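Method: 48-hour compound exposure of cells in 96-well plates, five concentrations, linear interpolation of endpoints. The concentration for 50% growth inhibition is given as GI50.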 Calls of active or inactive are those of the source. No stated cut-off is given here; in the data, active = GI50 up to about 1.1 µM and inactive = higher. Where a SMILES comes first, the peptide text is derived from it. The star is where a group is joined. Fmoc = O=C(OCC1c2ccccc2-c2ccccc21)*; OBn = c1ccc(CO*)cc1; tBu = CC(C)(C)*
Legend:
Assay in all cases: inhibition of tumour cell growth, NCI panel, 48 h
[1] = system: A549
[2] = system: A498
[3] = system: UACC-257
[4] = system: SNB-78
[5] = system: ACHN
[6] = system: SN12C
[7] = system: SF-539
[8] = system: SF-295
[9] = system: NCI-H23
[10] = system: EKVX
[11] = system: SK-OV-3
[12] = system: COLO 205
[13] = system: SK-MEL-28
[14] = system: K562
[15] = system: HL-60
[16] = system: PC-3
[17] = system: MDA-N
[18] = system: NCI/ADR-RES
[19] = system: BT-549
[20] = system: SR

Compound | GI50 [1] | GI50 [2] | GI50 [3] | GI50 [4] | GI50 [5] | GI50 [6] | GI50 [7] | GI50 [8] | GI50 [9] | GI50 [10] | GI50 [11] | GI50 [12] | GI50 [13] | GI50 [14] | GI50 [15] | GI50 [16] | GI50 [17] | GI50 [18] | GI50 [19] | GI50 [20]
CC(C(=O)c1ccccc1)C1(O)C(=O)Nc2ccc(Cl)cc21 (stereo not drawn) | > 100 µM (inactive) | > 100 µM (inactive) | 31.6 µM (inactive) | > 100 µM (inactive) | > 100 µM (inactive) | > 100 µM (inactive) | > 100 µM (inactive) | > 100 µM (inactive) | > 100 µM (inactive) | > 100 µM (inactive) | > 100 µM (inactive) | > 100 µM (inactive) | > 100 µM (inactive) |  |  |  |  |  |  | 
CC(=O)NC(CCCCNCc1ccccc1)C(=O)NCc1ccccc1 (stereo not drawn) | > 100 µM (inactive) | > 100 µM (inactive) | > 100 µM (inactive) | > 100 µM (inactive) | > 100 µM (inactive) | > 100 µM (inactive) | > 100 µM (inactive) | > 100 µM (inactive) | > 100 µM (inactive) | > 100 µM (inactive) | > 100 µM (inactive) | > 100 µM (inactive) | > 100 µM (inactive) | > 100 µM (inactive) |  |  |  |  |  | 
CCOP(=O)(OCC)/C(C#N)=C/c1cnc(C)[nH]1 | > 100 µM (inactive) | > 100 µM (inactive) | > 100 µM (inactive) |  | > 100 µM (inactive) | > 100 µM (inactive) | > 100 µM (inactive) | > 100 µM (inactive) | > 100 µM (inactive) | > 100 µM (inactive) | 20.5 µM (inactive) | > 100 µM (inactive) | > 100 µM (inactive) | > 100 µM (inactive) | > 100 µM (inactive) | > 100 µM (inactive) | > 100 µM (inactive) | > 100 µM (inactive) | > 100 µM (inactive) | > 100 µM (inactive)
Cc1ccc(S(=O)(=O)N2CC(CCN)c3ccccc32)cc1 (stereo not drawn) | 9.51 µM (inactive) | 10.7 µM (inactive) | 4.78 µM (inactive) |  | 8.41 µM (inactive) | 2.72 µM (inactive) | 3.17 µM (inactive) | 4.56 µM (inactive) | 6.38 µM (inactive) | 13 µM (inactive) | 5.5 µM (inactive) | 4.06 µM (inactive) | 5.16 µM (inactive) | 4.35 µM (inactive) | > 100 µM (inactive) | 3.64 µM (inactive) | 0.883 µM (active) | 5.61 µM (inactive) | 5.69 µM (inactive) | 5.19 µM (inactive)
NS(=O)(=O)c1cc(C(=O)O)c(O)c2ccccc12 | > 100 µM (inactive) | > 100 µM (inactive) | > 100 µM (inactive) |  | > 100 µM (inactive) | > 100 µM (inactive) | > 100 µM (inactive) | > 100 µM (inactive) | > 100 µM (inactive) | > 100 µM (inactive) | > 100 µM (inactive) | > 100 µM (inactive) | > 100 µM (inactive) | > 100 µM (inactive) | > 100 µM (inactive) | > 100 µM (inactive) | > 100 µM (inactive) | > 100 µM (inactive) | > 100 µM (inactive) | > 100 µM (inactive)
C/C(=N\NC(=S)N/N=C(\C)c1ccccn1)c1ccccn1 | 2.18 µM (inactive) | 6.03 µM (inactive) | 4.09 µM (inactive) |  | 1.27 µM (inactive) | 0.345 µM (active) | 0.979 µM (active) | 1.57 µM (inactive) | 4.6 µM (inactive) | 1.12 µM (inactive) | 1.31 µM (inactive) | 3 µM (inactive) | 8.36 µM (inactive) | 1.92 µM (inactive) | > 100 µM (inactive) | 1.27 µM (inactive) | 5.4 µM (inactive) | 0.381 µM (active) | 5.22 µM (inactive) | 2.18 µM (inactive)
CC(OC(C)(C)C)C(NC(=O)OCC1c2ccccc2-c2ccccc21)C(=O)NC(Cc1ccccc1)C(=O)OCc1ccccc1 (stereo not drawn) (Fmoc-Thr(tBu)-Phe-OBn; configuration not given here) | > 100 µM (inactive) | > 100 µM (inactive) | > 100 µM (inactive) |  | > 100 µM (inactive) | > 100 µM (inactive) | > 100 µM (inactive) | > 100 µM (inactive) | > 100 µM (inactive) | > 100 µM (inactive) | > 100 µM (inactive) | > 100 µM (inactive) | > 100 µM (inactive) | > 100 µM (inactive) | > 100 µM (inactive) | > 100 µM (inactive) | > 100 µM (inactive) | > 100 µM (inactive) | > 100 µM (inactive) | > 87.9 µM (inactive)
CCOC(=O)c1c(N2CCCC2)[nH]c(=O)c(C(c2ccco2)c2c(O)c(C(=O)OCC)c(N3CCCC3)[nH]c2=O)c1O | > 100 µM (inactive) | > 100 µM (inactive) | > 100 µM (inactive) |  | 95.5 µM (inactive) | > 100 µM (inactive) | > 100 µM (inactive) | 40.3 µM (inactive) | > 100 µM (inactive) | > 100 µM (inactive) | > 100 µM (inactive) | > 100 µM (inactive) | > 100 µM (inactive) | > 100 µM (inactive) | > 100 µM (inactive) | > 100 µM (inactive) | > 100 µM (inactive) | > 100 µM (inactive) | > 100 µM (inactive) | > 100 µM (inactive)
O=C(c1ccc(-c2ccccc2)cc1)N(Cc1cccnc1)C(=S)N(Cc1cccnc1)C(=O)c1ccc(-c2ccccc2)cc1 | > 100 µM (inactive) | > 100 µM (inactive) | > 100 µM (inactive) |  | > 100 µM (inactive) | > 100 µM (inactive) | > 100 µM (inactive) | > 100 µM (inactive) | > 100 µM (inactive) | > 100 µM (inactive) | > 100 µM (inactive) | > 100 µM (inactive) | > 100 µM (inactive) | 0.394 µM (active) | 24.5 µM (inactive) | > 100 µM (inactive) | 43.5 µM (inactive) | > 100 µM (inactive) | 55 µM (inactive) | 0.241 µM (active)
c1ccc(SCCc2ccncc2)cc1 | 84.5 µM (inactive) | 70 µM (inactive) | > 100 µM (inactive) |  | > 100 µM (inactive) | > 100 µM (inactive) | > 100 µM (inactive) | 39.5 µM (inactive) | 67.6 µM (inactive) | 46 µM (inactive) | > 100 µM (inactive) | > 100 µM (inactive) | > 100 µM (inactive) | 49.5 µM (inactive) | 50.6 µM (inactive) | > 100 µM (inactive) | > 100 µM (inactive) | 58.7 µM (inactive) | > 100 µM (inactive) | 19.3 µM (inactive)
Cc1occc1C(=S)Nc1ccc(Cl)c(/C=N/OC(C)C)c1 | 22.3 µM (inactive) | 19.2 µM (inactive) | 22 µM (inactive) |  | 21.2 µM (inactive) | 16.8 µM (inactive) | 16.7 µM (inactive) | 18.3 µM (inactive) | 20.1 µM (inactive) | 23 µM (inactive) | 24.3 µM (inactive) | 16.9 µM (inactive) | 27 µM (inactive) | 29.7 µM (inactive) | 26.7 µM (inactive) | 24.9 µM (inactive) | 20.8 µM (inactive) | 22.2 µM (inactive) | 18.2 µM (inactive) | 21.1 µM (inactive)

— ChEMBL document CHEMBL1201862, “PubChem BioAssay data set” (2004)
